EP0965268B1, “Thermostabilization, osmoprotection, and protection against desiccation of enzymes, cell components and cells by di-glycerol-phosphate” (bitop Aktiengesellschaft für biotechnische Optimierung, priority 1998, dated 1999)

Legend:
[1] = target: T1, yeast alcohol dehydrogenase (ADH) (Saccharomyces cerevisiae, UniProt P00330); test: Thermostability of alcohol dehydrogenase, residual activity after incubation at 50°C; format: biochemical, baker's yeast; details: 10 min incubation at 50°C, without solute 33%
T1 construct: Alcohol dehydrogenase (Sigma, baker's yeast) was obtained in the lyophilized form and used without further purification; purchased Sigma; host or cells: baker's yeast
T1 sequence (P00330 2-348 limits assumed): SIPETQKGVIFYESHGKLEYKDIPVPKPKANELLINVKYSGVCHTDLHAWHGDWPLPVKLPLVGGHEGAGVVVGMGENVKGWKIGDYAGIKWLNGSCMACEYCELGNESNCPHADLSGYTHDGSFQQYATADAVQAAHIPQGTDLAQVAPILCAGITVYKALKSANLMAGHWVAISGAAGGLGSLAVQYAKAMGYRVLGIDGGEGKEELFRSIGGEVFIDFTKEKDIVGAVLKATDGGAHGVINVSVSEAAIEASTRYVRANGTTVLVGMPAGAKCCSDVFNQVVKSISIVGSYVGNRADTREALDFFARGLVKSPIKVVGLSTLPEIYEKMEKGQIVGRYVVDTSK
Experimental: (§1) Lactate dehydrogenase, LDH (Sigma Type III, rabbit muscle), purchased as a suspension in ammonium sulphate, was centrifuged, the supernatant was discarded, and the enzyme was suspended in 50 mM potassium phosphate pH 7.5. Alcohol dehydrogenase (Sigma, baker's yeast) was obtained in the lyophilized form and used without further purification. Enzymes were assayed using a Beckman spectrophotometer with a the rmostated cell compartment at 30°C.
(§2) In the experiments where thermal stress was imposed, enzymes were prepared at a concentration of 50 mg . ml^-1 in 20 mM potassium phosphate buffer, and the reaction mixtures were placed in Eppendorf tubes, incubated in a water-bath at 50°C for 10 minutes, cooled in an ice-bath and assayed immediately under standard conditions.
(§3) The effect of 1,1'-di-glycerol-phosphate on the thermostability of rabbit muscle LDH and baker's yeast ADH was compared to that of glycerol, a compound that is generally described as an enzyme protector. The percentage of residual activity in relation to pre-incubation activity, measured after 10 min of incubation at 50°C, is shown in Figure 5, for rabbit muscle LDH (A) and yeast ADH (B).

[2] = target: T2, Desulfovibrio gigas rubredoxin (Megalodesulfovibrio gigas, UniProt P00270); test: Thermal denaturation of rubredoxin, decrease in absorbance at 494 nm at 90°C; format: biochemical; details: 30 min incubation of rubredoxin at 90 °C, without solute 73%
T2 construct: Rubredoxin was obtained and purified as described by LeGall and Dragoni [15] from Desulfovibrio gigas; made in house; host or cells: Desulfovibrio gigas (natural source, not recombinant)
Experimental: Rubredoxin was obtained and purified as described by LeGall and Dragoni from Desulfovibrio gigas. This protein was then stored at -20°C in 10 mM Tris-HCl buffer at pH 7.6.
The most informative feature of the UV-Vis absorption spectrum of rubredoxins comes from the signals with maxima centered at 380, 494, and 570 nm which are attributed to metal to ligand transitions. These bands are bleached when rubredoxin undergoes de naturation.
In the experiments designed to evaluate denaturation caused by thermal stress, rubredoxin was prepared at a concentration of 84 µg . ml^-1 in 10 mM Tris-HCI buffer pH 7.6 and the incubation mixtures, with or without the additions of solutes, were placed in 400 µl quartz cells in a Beckman spectrophotometer with a thermostated cell compartment. The protein was subjected to a temperature of 90°C and the decrease in the absorbance at 494 nm was monitored as a function of time.
The protective effect of 1,1'-di-glycerol-phosphate (at a concentration of 100 mM) was compared with that of potassium phosphate (100 mM) and glycerol (200 mM) (Figure 4). After 30 min incubation of rubredoxin at 90 °C the absorbance decreased by only 8.5% when 1,1'-di-glycerol-phosphate was present, whereas in the absence of any solute a decrease of 73% was observed. […] In fact, the decreases in absorption are as high as 61 and 58 % in the presence of 200 mM glycerol or 100 mM potassium phosphate, respectively.

[3] = target: T3, rabbit muscle lactate dehydrogenase (LDH) (Oryctolagus cuniculus, UniProt P13491); test: Thermostability of lactate dehydrogenase, residual activity after incubation at 50°C; format: biochemical; details: 100 mM solute; 10 min of incubation at 50°C; without solute 30%
T3 construct: Lactate dehydrogenase, LDH (Sigma Type III, rabbit muscle), purchased as a suspension in ammonium sulphate; purchased Sigma Type III; host or cells: rabbit muscle
Experimental: as §1, §2, §3
The effect of the concentration of 1,1'-di-glycerol-phosphate on the thermal stability of LDH was also monitored, and the results obtained after 10 min incubation at 50°C are shown in Figure 6. […]

T2 sequence (P00270 whole entry): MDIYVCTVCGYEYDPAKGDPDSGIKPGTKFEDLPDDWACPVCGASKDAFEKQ

Structure (SMILES) | activity retained (of the initial activity) ([1]; 100 mM solute) [%] | decrease in absorbance at 494 nm ([2]; 100 mM solute) [%] | residual activity in relation to pre-incubation activity [3] [%] | activity retained (of the initial activity) ([1]; 200 mM solute) [%] | decrease in absorbance at 494 nm ([2]; 200 mM solute) [%]
O=P(O)(OCC(O)CO)OCC(O)CO (stereo not shown) [1,1'-di-glycerol-phosphate] | 88 | 8.5 | 85 |  | 
OCC(O)CO [glycerol] |  |  | 37 | 31 | 61
O=P(O)(O)O [potassium phosphate] |  | 58 |  |  | 
